Reference: patent US11339171B2, “MDM2 inhibitors” (Gan & Lee Pharmaceuticals, priority 2017, dated 2022)
pIC50: −log10 of the molar value.

Columns and labels:
MDM2 = target: T1, MDM2 (Homo sapiens, UniProt Q00987); assay: Inhibition test of MDM2-P53 (GST-MDM2, Biotin-P53, Anti-GST-Tb, SA-XL665); format: binding; details: for inhibitory effect on MDM2 compared with positive control compound HDM201: labels are Example numbers, the compounds with S-configuration are meant
T1 construct: made in house
T1 sequence (Q00987 whole entry): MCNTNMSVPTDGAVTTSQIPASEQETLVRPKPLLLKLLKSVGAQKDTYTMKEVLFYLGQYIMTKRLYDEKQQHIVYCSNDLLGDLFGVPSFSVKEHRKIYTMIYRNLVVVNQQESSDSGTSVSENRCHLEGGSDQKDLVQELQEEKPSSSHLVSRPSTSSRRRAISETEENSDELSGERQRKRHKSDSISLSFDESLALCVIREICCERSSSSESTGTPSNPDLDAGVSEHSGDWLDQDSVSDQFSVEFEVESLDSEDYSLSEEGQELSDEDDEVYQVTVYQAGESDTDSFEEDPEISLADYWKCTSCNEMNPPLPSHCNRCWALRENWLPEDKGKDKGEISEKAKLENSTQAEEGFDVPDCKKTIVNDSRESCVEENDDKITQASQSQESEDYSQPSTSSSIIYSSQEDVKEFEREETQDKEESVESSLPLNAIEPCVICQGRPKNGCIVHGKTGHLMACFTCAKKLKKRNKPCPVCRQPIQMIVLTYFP
Procedure, shortened: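 Binding was measured by TR-FRET with GST-MDM2 at 4 nM final in PBS with 0.1% BSA, 5 mM DTT and 1 mM AEBSF. Compounds were tested as twelve-point 5-fold dilutions and incubated with the detection mix for 90 min at 25 °C with shaking before plate-reader reading and curve fitting.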

[1] = test system: human osteosarcoma cell line SJSA-1; assay: Inhibition of proliferation of human osteosarcoma cell line SJSA-1 (DAPI staining, In Cell Analyzer); details: for IC50: Homo sapiens, SJSA-1, 72 h, read-out: IC50 (nM), inhibitory activity on proliferation of human osteosarcoma cell line SJSA-1, SJSA-1, incubated 72 h; for inhibitory effect on human osteosarcoma cell line SJSA-1 compared with positive control compound HDM201: labels are Example numbers, the compounds with S-configuration are meant
Experimental: 2.2 Experiment Preparation:
2.2.1 Preparation of a culture medium for human osteosarcoma cell line SJSA-1: RPMI1640+10% FBS+1% penicillin/streptomycin
2.2.2 Preparation of a test compound solution:
a. the test compound solution with a certain concentration was taken, and diluted with the culture medium to obtain a compound solution with a final concentration of 20 μM;
b. 200 μL of a culture medium containing 0.2% DMSO (dimethyl sulfoxide) was added into H2-H10 of a 96-well plate; 300 μl of the above solution was added into H1; and
c. 100 μL was taken out from well H1, added into H2, and mixed well; then 100 μl of the resultant solution was taken and added into H3, and dilution was carried out in sequence until H9 to obtain the 3-fold serial dilution of the test compound.
2.3 Experimental Process:
2.3.1 SJSA-1 cells were inoculated into a 96-well cell plate with black transparent bottom at 4000 cells/100 μl/well, and cultured overnight at 37° C.;
2.3.3 Fixation: the cell plate was taken out, the culture medium was removed, and 50 μL of 4% paraformaldehyde solution was added to each well to fix for 10 min;
2.3.4 50 μl of 0.1 M glycine was added to neutralize for 10 min;
2.3.5 Washing was performed with 1×PBS (phosphate buffer solution pH7.2) twice;
2.3.6 Permeabilization: 50 μL of 0.2% TritonX-100 (Triton) was added per well, and permeabilization was carried out at room temperature for 10 min;
2.3.7 Washing was performed with 1×PBS (phosphate buffer solution pH7.2) twice;
2.3.9 Washing was performed with 1×PBS (phosphate buffer solution pH7.2) for three times; and
2.3.10 Scanning and analysis were performed by In cell analyzer.
The inhibition rate of each compound at each concentration point was calculated according to the following formula, and curve fitting was performed by GraphPad Prism 6.0 software to obtain the IC50 value.

SMILES | pIC50 (MDM2) | IC50 [1] | inhibitory effect on MDM2 compared with positive control compound HDM201 (MDM2) | inhibitory effect on human osteosarcoma cell line SJSA-1 compared with positive control compound HDM201 [1]
COc1cc(OC2CC2)ncc1-c1nc2c(n1C(C)C)[C@@]1(C(=O)Nc3cc(Cl)ccc31)N(c1cc(Cl)ccc1C)C2=O [Example S-110, (S)-6-chloro-5′-(5-chloro-2-methylphenyl)-2′-(6-cyclopropoxy-4-methoxypyridin-3-yl)-3′-isopropyl-3′H-spiro[dihydroindole-3,4′-pyrrolo[3,4-d]imidazole]-2,6′(5′H)-dione] | 8.80 | 78 nM | – | –
COc1cc(OCCF)ncc1-c1nc2c(n1C(C)C)[C@@]1(C(=O)Nc3cc(Cl)ccc31)N(c1cc(Cl)ccc1C)C2=O [Example S-163, (S)-6-chloro-5′-(5-chloro-2-methylphenyl)-2′-(6-(2-fluoroethoxy)-4-methoxypyridin-3-yl)-3′-isopropyl-3′H-spiro[dihydroindole-3,4′-pyrrolo[3,4-d]imidazole]-2,6′(5′H)-dione] | 8.87 | 126 nM | – | –
COc1cc(N(C)C)ncc1-c1nc2c(n1C(C)C)[C@@]1(C(=O)Nc3cc(Cl)ccc31)N(c1cc(Cl)ccc1C)C2=O [Example S-111, (S)-6-chloro-5′-(5-chloro-2-methylphenyl)-2′-(6-(dimethylamino)-4-methoxypyridin-3-yl)-3′-isopropyl-3′H-spiro[dihydroindole-3,4′-pyrrolo[3,4-d]imidazole]-2,6′(5′H)-dione] | 8.82 | 13 nM | – | –
COc1cc(N)ccc1-c1nc2c(n1C(C)C)[C@@]1(C(=O)Nc3cc(Cl)ccc31)N(c1cc(Cl)ccc1F)C2=O [Example S-66, (S)-2′-(4-amino-2-methoxyphenyl)-6-chloro-5′-(5-chloro-2-fluorophenyl)-3′-isopropyl-3′H-spiro[dihydroindole-3,4′-pyrrolo[3,4-d]imidazole]-2,6′(5′H)-dione] | 8.82 | 39.6 nM | – | –
COc1cc(OCCO)ccc1-c1nc2c(n1C(C)C)[C@@]1(C(=O)Nc3cc(Cl)ccc31)N(c1cc(Cl)ccc1C)C2=O [Example S-148, (S)-6-chloro-5′-(5-chloro-2-methylphenyl)-2′-(4-(2-hydroxyethoxy)-2-methoxyphenyl)-3′-isopropyl-3′H-spiro[dihydroindole-3,4′-pyrrolo[3,4-d]imidazole]-2,6′(5′H)-dione] | 8.80 | 71.8 nM | – | –
COc1ncc(-c2nc3c(n2C2CC2)[C@@]2(C(=O)Nc4cc(Cl)ccc42)N(c2cc(Cl)ccc2C)C3=O)c(OC)n1 [Example S-28, (S)-6-chloro-5′-(5-chloro-2-methylphenyl)-3′-cyclopropane-2′-(2,4-dimethoxypyrimidin-5-yl)-3′H-spiro[dihydroindole-3,4′-pyrrolo[3,4-d]imidazole]-2,6′(5′H)-dione] | 7.27 | 1290 nM | – | –
COc1cc(C(F)(F)F)ccc1-c1nc2c(n1C(C)C)[C@]1(C(=O)Nc3cc(Cl)ccc31)N(c1cc(Cl)ccc1C)C2=O [Example R-85, (R)-6-chloro-5′-(5-chloro-2-methylphenyl)-3′-isopropyl-2′-(2-methoxy-4-(trifluoromethyl)phenyl)-3′H-spiro[dihydroindole-3,4′-pyrrolo[3,4-d]imidazole]-2,6′(5′H)-dione] | 6.31 | 2190 nM | – | –
COc1cc(-c2nc3c(n2C(C)C)[C@]2(C(=O)Nc4cc(Cl)ccc42)N(c2cc(Cl)ccc2C)C3=O)c(OC)cn1 [Example R-40, (R)-6-chloro-5′-(5-chloro-2-methylphenyl)-2′-(2,5-dimethoxypyridin-4-yl)-3′-isopropyl-3′H-spiro[dihydroindole-3,4′-pyrrolo[3,4-d]imidazole]-2,6′(5′H)-dione] | 6.49 | 3090 nM | – | –
CCOc1ncc(-c2nc3c(n2C(C)C)[C@@]2(C(=O)Nc4cc(Cl)ccc42)N(c2cc(Cl)ccc2C)C3=O)c(OC)n1 [Example S-127, (S)-6-chloro-5′-(5-chloro-2-methylphenyl)-2′-(2-ethoxy-4-methoxypyrimidin-5-yl)-3′-isopropyl-3′H-spiro[dihydroindole-3,4′-pyrrolo[3,4-d]imidazole]-2,6′(5′H)-dione] | 8.56 | 83.2 nM | – | –
COc1cc(C(F)(F)F)ccc1-c1nc2c(n1C(C)C)[C@@]1(C(=O)Nc3cc(Cl)ccc31)N(c1cc(Cl)cnc1C)C2=O [Example S-144, (S)-6-chloro-5′-(5-chloro-2-methylpyridin-3-yl)-3′-isopropyl-2′-(2-methoxy-4-(trifluoromethyl)phenyl)-3′H-spiro[dihydroindole-3,4′-pyrrolo[3,4-d]imidazole]-2,6′(5′H)-dione] | 8.42 | 101 nM | – | –
COc1cc(OC(C)C)ncc1-c1nc2c(n1C(C)C)C1(C(=O)Nc3cc(Cl)ccc31)N(c1cc(Cl)cnc1C)C2=O (stereo not drawn) [Example 137, 6-chloro-5′-(5-chloro-2-methylpyridin-3-yl)-2′-(6-isopropoxy-4-methoxypyridin-3-yl)-3′-isopropyl-3′H-spiro[dihydroindole-3,4′-pyrrolo[3,4-d]imidazole]-2,6′(5′H)-dione] | – | – | better | better
CNc1ccc(-c2nc3c(n2C(C)C)[C@]2(C(=O)Nc4cc(Cl)ccc42)N(c2cc(Cl)ccc2C)C3=O)c(OC)c1 [Example R-25, (R)-6-chloro-5′-(5-chloro-2-methylphenyl)-3′-isopropyl-2′-(2-methoxy-4-(methylamine)phenyl)-3′H-spiro[dihydroindole-3,4′-pyrrolo[3,4-d]imidazole]-2,6′(5′H)-dione] | 7.29 | 265 nM | – | –
COc1cccc(F)c1-c1nc2c(n1C(C)C)[C@]1(C(=O)Nc3cc(Cl)ccc31)N(c1cc(Cl)ccc1C)C2=O [Example R-57, (R)-6-chloro-5′-(5-chloro-2-methylphenyl)-2′-(2-fluoro-6-methoxyphenyl)-3′-isopropyl-3′H-spiro[dihydroindole-3,4′-pyrrolo[3,4-d]imidazole]-2,6′(5′H)-dione] | 6.37 | 3960 nM | – | –
COc1ncc(-c2nc3c(n2C(C)C)[C@@]2(C(=O)Nc4cc(Cl)ccc42)N(c2ccc(C)c(Cl)c2)C3=O)c(OC)n1 [Example S-20, (S)-6-chloro-5′-(3-chloro-4-methylphenyl)-2′-(2,4-dimethoxypyrimidin-5-yl)-3′-isopropyl-3′H-spiro[dihydroindole-3,4′-pyrrolo[3,4-d]imidazole]-2,6′(5′H)-dione] | 8.36 | 48.1 nM | – | –
COc1cc(OC)c(-c2nc3c(n2C(C)C)[C@]2(C(=O)Nc4cc(Cl)ccc42)N(c2cc(Cl)ccc2C)C3=O)cc1F [Example R-92, (R)-6-chloro-5′-(5-chloro-2-methylphenyl)-2′-(5-fluoro-2,4-dimethoxyphenyl)-3′-isopropyl-3′H-spiro[dihydroindole-3,4′-pyrrolo[3,4-d]imidazole]-2,6′(5′H)-dione] | 6.42 | 4880 nM | – | –
COc1nc(OC(C)C)ncc1-c1nc2c(n1C(C)C)C1(C(=O)Nc3cc(Cl)ccc31)N(c1cc(Cl)ccc1C)C2=O (stereo not drawn) [Example 126, 6-chloro-5′-(5-chloro-2-methylphenyl)-2′-(2-isopropoxy-4-methoxypyrimidin-5-yl)-3′-isopropyl-3′H-spiro[dihydroindole-3,4′-pyrrolo[3,4-d]imidazole]-2,6′(5′H)-dione] | – | – | better | better
COc1ncc(-c2nc3c(n2C(C)C)[C@]2(C(=O)Nc4cc(Cl)ccc42)N(c2cc(C)ccc2C)C3=O)c(OC)n1 [Example R-56, (R)-6-chloro-2′-(2,4-dimethoxypyrimidin-5-yl)-5′-(2,5-dimethylphenyl)-3′-isopropyl-3′H-spiro[dihydroindole-3,4′-pyrrolo[3,4-d]imidazole]-2,6′(5′H)-dione] | 6.81 | 3480 nM | – | –
COc1ccc(C(=O)O)cc1-c1nc2c(n1C(C)C)C1(C(=O)Nc3cc(Cl)ccc31)N(c1cc(Cl)ccc1C)C2=O (stereo not drawn) [Example 84, 3-(6-chloro-5′-(5-chloro-2-methylphenyl)-3′-isopropyl-2,6′-dioxo-5′,6′-dihydro-3′H-spiro[dihydroindole-3,4′-pyrrolo[3,4-d]imidazole]-2′-yl)-4-methoxybenzoic acid] | 8.42 | 2610 nM | – | –
COc1nc(OCC(F)(F)F)ncc1-c1nc2c(n1C(C)C)[C@@]1(C(=O)Nc3cc(Cl)ccc31)N(c1cc(Cl)ccc1C)C2=O [Example S-141, (S)-6-chloro-5′-(5-chloro-2-methylphenyl)-3′-isopropyl-2′-(4-methoxy-2-(2,2,2-trifluoroethoxy)pyrimidin-5-yl)-3′H-spiro[dihydroindole-3,4′-pyrrolo[3,4-d]imidazole]-2,6′(5′H)-dione] | 8.47 | 73.6 nM | – | –
COc1ccc(-c2nc3c(n2C(C)C)[C@@]2(C(=O)Nc4cc(Cl)ccc42)N(c2cc(Cl)ccc2C)C3=O)c(OC)n1 [Example S-8, (S)-6-chloro-5′-(5-chloro-2-methylphenyl)-2′-(2,6-dimethoxypyridin-3-yl)-3′-isopropyl-3′H-spiro[dihydroindole-3,4′-pyrrolo[3,4-d]imidazole]-2,6′(5′H)-dione] | 8.48 | 10.3 nM | – | –
CCOc1ncc(-c2nc3c(n2C(C)C)[C@]2(C(=O)Nc4cc(Cl)ccc42)N(c2cc(Cl)ccc2F)C3=O)c(OC)n1 [Example R-97, (R)-6-chloro-5′-(5-chloro-2-fluorophenyl)-2′-(2-ethoxy-4-methoxypyrimidin-5-yl)-3′-isopropyl-3′H-spiro[dihydroindole-3,4′-pyrrolo[3,4-d]imidazole]-2,6′(5′H)-dione] | 8.24 | 396 nM | – | –
